Experimental data published in patent US8592173B2, “Cancer diagnosis by measuring polyisoprenylated methylated protein methyl esterase activity” (Florida Agricultural and Mechanical University, priority 2011, dated 2013).

Tested on: PMPMEase
Test: Inhibition of PMPMEase by drugs, curcumin, fatty acids and prostaglandins
Format: biochemical
Settings: for concentrations at which PMPMEase is inhibited: concentration range stated in words only

Compound	concentrations at which PMPMEase is inhibited	also measured
CCCCC[C@H](O)/C=C/[C@H]1[C@H](O)CC(=O)[C@@H]1C/C=C\CCCC(=O)O [PGE2]	–	inhibition of PMPMEase at 1 mM (1 mM): did not inhibit
CCCCC[C@H](O)/C=C/[C@H]1C=CC(=O)[C@@H]1C/C=C\CCCC(=O)O [Prostaglandin (PG) A2]	–	fold less potent than AA as PMPMEase inhibitor (relative to arachidonic acid (AA)): 63 fold
CCCCC/C=C\C/C=C\C/C=C\C/C=C\CCCC(=O)O [arachidonic acid]	micromolar concentrations	–
COc1cc(/C=C/C(=O)CC(=O)/C=C/c2ccc(O)c(OC)c2)ccc1O [curcumin]	micromolar concentrations	–
O=P1(N(CCCl)CCCl)NCCCO1 (stereo not drawn) [cyclophosphamide]	millimolar concentrations	–
CC/C(=C(\c1ccccc1)c1ccc(OCCN(C)C)cc1)c1ccccc1 [tamoxifen]	millimolar concentrations	–
